One series concerns melanin. Put plainly: Binding capacity of compounds to melanin. It counts as in vitro ADME. Particulars: Sepia officinalis (cuttlefish), melanin suspension (1 mg/mL); 1 mg/mL melanin suspension in PBS pH 7.4, 2 μM compound, 2 h at 37° C.; read-out: Fu % (percentage of free drug, not bound to melanin). An excerpt: Pigmented eye tissues contain melanin in intracellular melanosomes. Drugs bind to melanin to varying degrees, ranging from non-binding to extensive binding. Therefore, melanin binding is an important feature that affects drug delivery and biodistribution in the eye. The binding capacity of a compound to the melanin must be considered in the development of ophthalmic drugs.
Melanin was derived from the melanin of cuttlefish (Sepia officinalis) and was commercially available from Sigma Aldrich (St Louis, MO).
First, prepare 1 mg/mL melanin suspension with PBS (pH 7.4). As a washing step for the matrix, centrifuge the suspended particles for 5 min at 3000 rpm. Resuspend the resulting particles in a fresh PBS buffer, heat to 37° C. over continuous shaking and incubate it for 1 h. Accurately pipette 2 μL of the test stock solution (0.1 mM) into 98 μL of melanin suspension (1 mg/mL) to achieve a final incubation concentration of 2 μM. Similarly, accurately pipette 2 μL of the stock solution (0.1 mM) to 98 μL of PBS buffer (containing 0.1% BSA) as a blank control sample. Incubate the samples in a shaker (80-90 rpm) for 2 h at 37° C. Then, centrifuge the samples at room temperature. Pipette 50 μL of the supernatant and add 50 μL of precipitant (containing an internal standard). After protein precipitation of all the above samples, centrifuge the samples to collect the supernatants, dilute the supernatants with water (if necessary) and inject them for analysis. At the same time, measure the positive controls, including the high-binding compounds Sunitinib and chloroquine and the low-binding compound celecoxib. Establish an LC-MS/MS method for determining compound concentrations, and calibrate the peak area ratio of analyte/internal standard (Analyte/AIS) in the measured sample by the dilution factor to take it as an alternative concentration for the sample for data processing. The binding rate (Fh) of a compound in melanin was calculated as: […]
Ctest was the concentration of the compound in the melanin-incubated sample or the peak area ratio of the test compound to the internal standard. Ccontrol was the concentration of the compound in the blank control sample or the peak area ratio of the test compound to the internal standard. Percentage of free drug (Fu %)=100−Fb The binding rates of the compounds of the present invention to melanin are shown in the table below: […]

In a further series the target is KDR (VEGFR2) (Homo sapiens (Human), UniProt P35968). Put plainly: Kinase inhibition, Mobility Shift Assay (VEGFR2). The format is biochemical. The protocol: (§1) This assay directly monitored the ability of compounds to inhibit kinase phosphorylation by measuring non-phosphorylated and phosphorylated substrates in kinase reactions by using Mobility Shift Assays/IMAP™ analysis.
(§2) Add the kinase and DTT to 1× kinase buffer to form a 2.5× kinase solution; transfer 10 μL of 2.5× kinase solution to a 384-well reaction plate and add 1× kinase buffer to negative control wells. Incubate the plate for 10 min at room temperature; add FAM-labeled peptides, MgCl2, ATP and other reagents to 1× kinase buffer to form a 2.5× substrate solution; transfer 10 μL of the above 2.5× substrate solution to the 384-well reaction plate; incubate the plate at 28° C. for different times, and add 25 μL of stop solution to the 384-well reaction plate to stop the reaction. Read the conversion ratio data on CaliperEZ Reader II. Convert conversion rates into inhibition ratio data.
(§3) “Min” indicates the readout of the control well without the addition of kinase; and “Max” indicates the readout of the control well with the addition of DMSO. Fit IC50 values with XLFit excel add-in version 5.4.0.8.
(§4) X indicates the log value of compound concentration, and Y indicates the inhibition ratio (% inhibition).

The next series has as its target FLT4 (VEGFR3) (Homo sapiens (Human), UniProt P35916). Put plainly: Kinase inhibition, Mobility Shift Assay (VEGFR3). The format is biochemical. The protocol:
as §1, §2, §3, §4

The target in the next series is EGFR (Homo sapiens (Human), UniProt P00533). Put plainly: Kinase inhibition, Mobility Shift Assay (EGFR). It counts as biochemical. The protocol: as §1, §2, §3, §4
In the next series the target is FLT1 (VEGFR1) (Homo sapiens (Human), UniProt P17948). The experiment in a line: Kinase inhibition, Mobility Shift Assay (VEGFR1). It counts as biochemical. Here is the method:
as §1, §2, §3, §4

FLT4 (VEGFR3), sequence (P35916 25-1363): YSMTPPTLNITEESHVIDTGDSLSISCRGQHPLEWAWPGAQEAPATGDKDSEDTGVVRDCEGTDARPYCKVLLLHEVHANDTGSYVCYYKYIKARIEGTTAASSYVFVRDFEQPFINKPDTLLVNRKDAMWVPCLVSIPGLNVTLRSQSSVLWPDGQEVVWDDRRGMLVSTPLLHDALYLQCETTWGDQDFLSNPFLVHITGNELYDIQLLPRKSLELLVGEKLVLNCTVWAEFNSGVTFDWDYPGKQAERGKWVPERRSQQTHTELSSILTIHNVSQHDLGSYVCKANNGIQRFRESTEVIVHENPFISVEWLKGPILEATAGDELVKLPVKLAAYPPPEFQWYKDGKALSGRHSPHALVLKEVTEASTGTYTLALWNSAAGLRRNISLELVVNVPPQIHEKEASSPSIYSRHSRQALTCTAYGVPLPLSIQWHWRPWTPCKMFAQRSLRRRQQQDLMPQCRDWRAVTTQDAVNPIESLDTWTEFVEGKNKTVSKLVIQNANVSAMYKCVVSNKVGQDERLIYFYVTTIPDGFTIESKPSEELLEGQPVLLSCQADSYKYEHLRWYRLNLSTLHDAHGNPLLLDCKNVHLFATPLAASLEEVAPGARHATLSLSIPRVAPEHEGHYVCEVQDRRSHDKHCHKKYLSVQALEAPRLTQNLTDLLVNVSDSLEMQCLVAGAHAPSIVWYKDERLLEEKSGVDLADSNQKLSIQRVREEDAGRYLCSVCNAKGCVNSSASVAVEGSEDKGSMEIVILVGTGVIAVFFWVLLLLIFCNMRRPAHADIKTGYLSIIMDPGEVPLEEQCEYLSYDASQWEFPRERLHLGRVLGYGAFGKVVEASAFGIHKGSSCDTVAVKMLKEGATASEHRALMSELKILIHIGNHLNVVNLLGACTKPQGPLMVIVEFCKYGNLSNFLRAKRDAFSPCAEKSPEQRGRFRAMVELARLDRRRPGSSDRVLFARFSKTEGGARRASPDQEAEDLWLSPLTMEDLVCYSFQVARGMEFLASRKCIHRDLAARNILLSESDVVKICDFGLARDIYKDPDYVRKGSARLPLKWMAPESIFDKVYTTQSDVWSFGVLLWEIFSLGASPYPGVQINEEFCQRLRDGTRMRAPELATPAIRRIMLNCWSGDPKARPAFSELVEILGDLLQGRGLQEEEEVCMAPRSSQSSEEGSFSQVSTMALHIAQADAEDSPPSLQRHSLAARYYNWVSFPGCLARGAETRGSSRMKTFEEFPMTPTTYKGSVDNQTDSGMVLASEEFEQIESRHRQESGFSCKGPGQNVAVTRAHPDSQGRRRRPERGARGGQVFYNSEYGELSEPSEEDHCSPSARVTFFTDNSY
FLT1 (VEGFR1), sequence (P17948 27-1338): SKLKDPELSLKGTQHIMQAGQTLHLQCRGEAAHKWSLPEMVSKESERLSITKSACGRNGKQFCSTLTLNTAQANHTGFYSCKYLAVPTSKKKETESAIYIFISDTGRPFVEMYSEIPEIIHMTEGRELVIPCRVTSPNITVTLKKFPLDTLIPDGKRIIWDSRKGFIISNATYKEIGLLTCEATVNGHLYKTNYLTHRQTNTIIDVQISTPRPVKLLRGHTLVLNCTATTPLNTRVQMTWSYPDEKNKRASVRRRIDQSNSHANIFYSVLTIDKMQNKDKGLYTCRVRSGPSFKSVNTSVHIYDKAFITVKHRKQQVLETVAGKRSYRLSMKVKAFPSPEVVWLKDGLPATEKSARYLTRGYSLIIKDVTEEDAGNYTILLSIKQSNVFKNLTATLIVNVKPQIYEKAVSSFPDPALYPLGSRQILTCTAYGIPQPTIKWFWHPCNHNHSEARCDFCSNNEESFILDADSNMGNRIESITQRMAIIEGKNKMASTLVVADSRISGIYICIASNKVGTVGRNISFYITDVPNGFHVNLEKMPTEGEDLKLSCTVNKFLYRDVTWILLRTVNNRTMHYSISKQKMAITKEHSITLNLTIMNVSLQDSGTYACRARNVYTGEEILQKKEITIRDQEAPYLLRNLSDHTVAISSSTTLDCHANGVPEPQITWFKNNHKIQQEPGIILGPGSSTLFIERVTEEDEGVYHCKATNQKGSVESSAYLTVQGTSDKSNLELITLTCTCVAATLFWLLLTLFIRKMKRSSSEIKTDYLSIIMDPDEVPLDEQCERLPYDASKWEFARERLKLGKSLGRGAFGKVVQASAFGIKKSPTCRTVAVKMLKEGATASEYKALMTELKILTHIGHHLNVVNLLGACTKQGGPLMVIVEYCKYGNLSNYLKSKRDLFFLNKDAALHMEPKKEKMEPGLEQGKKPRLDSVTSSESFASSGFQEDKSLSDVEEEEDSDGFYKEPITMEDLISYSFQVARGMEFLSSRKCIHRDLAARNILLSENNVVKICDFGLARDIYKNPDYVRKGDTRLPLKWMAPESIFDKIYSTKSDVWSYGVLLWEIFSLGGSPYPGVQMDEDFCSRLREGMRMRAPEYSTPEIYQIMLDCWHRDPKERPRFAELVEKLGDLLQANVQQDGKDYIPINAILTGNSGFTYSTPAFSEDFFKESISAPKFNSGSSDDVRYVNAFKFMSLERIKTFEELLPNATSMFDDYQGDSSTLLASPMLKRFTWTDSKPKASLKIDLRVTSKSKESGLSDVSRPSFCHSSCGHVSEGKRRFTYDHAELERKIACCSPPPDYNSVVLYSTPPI
KDR (VEGFR2), sequence (P35968 790-1356): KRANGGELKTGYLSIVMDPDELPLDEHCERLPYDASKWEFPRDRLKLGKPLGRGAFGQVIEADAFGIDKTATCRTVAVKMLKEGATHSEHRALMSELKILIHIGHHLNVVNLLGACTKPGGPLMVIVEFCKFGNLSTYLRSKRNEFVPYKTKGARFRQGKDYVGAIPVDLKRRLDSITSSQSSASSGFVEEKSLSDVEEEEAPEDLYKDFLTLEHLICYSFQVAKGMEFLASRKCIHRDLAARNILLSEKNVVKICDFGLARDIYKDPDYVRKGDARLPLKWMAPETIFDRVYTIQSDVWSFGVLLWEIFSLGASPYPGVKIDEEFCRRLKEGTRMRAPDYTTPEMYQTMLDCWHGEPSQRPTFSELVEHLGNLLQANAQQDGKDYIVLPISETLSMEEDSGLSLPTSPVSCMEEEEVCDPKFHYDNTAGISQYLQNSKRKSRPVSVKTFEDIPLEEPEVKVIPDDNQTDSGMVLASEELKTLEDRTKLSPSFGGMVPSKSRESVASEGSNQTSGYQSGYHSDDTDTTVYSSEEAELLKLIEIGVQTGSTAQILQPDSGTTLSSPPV
EGFR, sequence (P00533 25-1210): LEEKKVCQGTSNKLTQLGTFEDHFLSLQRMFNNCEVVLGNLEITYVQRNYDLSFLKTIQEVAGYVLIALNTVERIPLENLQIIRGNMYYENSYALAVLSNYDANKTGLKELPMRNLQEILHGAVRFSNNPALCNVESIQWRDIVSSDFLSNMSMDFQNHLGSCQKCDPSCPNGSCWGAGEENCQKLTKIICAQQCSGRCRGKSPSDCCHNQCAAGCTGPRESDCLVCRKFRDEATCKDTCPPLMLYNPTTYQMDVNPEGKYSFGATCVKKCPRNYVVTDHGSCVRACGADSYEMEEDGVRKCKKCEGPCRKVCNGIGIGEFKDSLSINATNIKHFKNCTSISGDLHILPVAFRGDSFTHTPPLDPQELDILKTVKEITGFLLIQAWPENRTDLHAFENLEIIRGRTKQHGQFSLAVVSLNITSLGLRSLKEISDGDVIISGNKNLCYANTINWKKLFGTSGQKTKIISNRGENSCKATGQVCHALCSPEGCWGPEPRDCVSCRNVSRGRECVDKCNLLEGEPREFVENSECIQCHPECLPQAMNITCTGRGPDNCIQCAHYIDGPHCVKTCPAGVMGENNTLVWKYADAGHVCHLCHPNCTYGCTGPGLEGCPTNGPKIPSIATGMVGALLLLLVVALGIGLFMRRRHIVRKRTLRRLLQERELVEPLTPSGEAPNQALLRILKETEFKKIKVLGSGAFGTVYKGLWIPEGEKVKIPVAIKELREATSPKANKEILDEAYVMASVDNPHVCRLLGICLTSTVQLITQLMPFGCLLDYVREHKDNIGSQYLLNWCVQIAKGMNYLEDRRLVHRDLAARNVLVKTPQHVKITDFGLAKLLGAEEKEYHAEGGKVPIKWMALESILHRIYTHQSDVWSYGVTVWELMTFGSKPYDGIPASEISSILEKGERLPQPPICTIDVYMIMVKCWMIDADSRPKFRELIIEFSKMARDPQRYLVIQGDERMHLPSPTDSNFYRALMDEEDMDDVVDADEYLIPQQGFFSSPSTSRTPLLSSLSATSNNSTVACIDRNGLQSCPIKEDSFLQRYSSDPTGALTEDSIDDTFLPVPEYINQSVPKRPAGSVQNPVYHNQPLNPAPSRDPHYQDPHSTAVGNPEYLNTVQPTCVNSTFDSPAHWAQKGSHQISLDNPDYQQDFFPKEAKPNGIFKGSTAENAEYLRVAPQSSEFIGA

As a reminder, the IC50 is the concentration at which inhibition is half-maximal. `CNC(=O)c1ccccc1Sc1ccc2c(/C=C/c3ccn(CCCN4CCCC4)n3)n[nH]c2c1` [Compound I-11, N-methyl-2-({3-[(E)-2-{1-[3-(pyrrolidin-1-yl)propyl]-1H-pyrazole-3-yl}vinyl]-1H-indazol-6-yl}thio)benzamide]: the fraction unbound at 2 h, 2 μM in the series on melanin is 0.01 to 0.05. For the same compound, the IC50 at KDR (VEGFR2) was 1 to 10 nM; at FLT4 (VEGFR3), 1 to 10 nM; at EGFR, 6000 to 60000 nM; at FLT1 (VEGFR1), 1 to 10 nM.

For `CNC(=O)c1cccc(F)c1Sc1ccc2c(/C=C/c3ccc(OCCN4CCCC4)cn3)n[nH]c2c1` [Compound I-33, 3-fluoro-N-methyl-2-({3-[(E)-2-{5-[2-(pyrrolidin-1-yl)ethoxy]pyridin-2-yl}vinyl]-1H-indazol-6-yl}thio)benzamide], the fraction unbound at 2 h, 2 μM in the series with melanin is more than 0.05. The IC50 on KDR (VEGFR2) fell in the range of 1 to 10 nM; on FLT4 (VEGFR3) it was 1 to 10 nM; on EGFR, 6000 to 60000 nM; at FLT1 (VEGFR1) it was 1 to 10 nM.

As for `CNC(=O)c1ccccc1Sc1ccc2c(/C=C/c3ccc(OC[C@@H]4CCN(C)C4)cn3)n[nH]c2c1` [Compound I-39, N-methyl-2-({3-[(E)-2-(5-{[(3R)-1-methylpyrrolidin-3-yl]methoxy}pyridin-2-yl)vinyl]-1H-indazol-6-yl}thio)benzamide], the fraction unbound at 2 h, 2 μM with melanin was in the range of 0.01 to 0.05. Besides, the IC50 at KDR (VEGFR2) was not above 1 nM; on FLT4 (VEGFR3), 1 to 10 nM; at EGFR, 6000 to 60000 nM; on FLT1 (VEGFR1), not above 1 nM.

In the case of `CNC(=O)c1ccccc1Sc1ccc2c(/C=C/c3ccc(OCC4CCN(C)C4)cn3)n[nH]c2c1` (stereo not shown) [Compound I-1, N-methyl-2-({3-[(E)-2-{5-[(1-methylpyrrolidin-3-yl)methoxy]pyridin-2-yl}vinyl]-1H-indazol-6-yl}thio)benzamide], the fraction unbound at 2 h, 2 μM in the series with melanin is more than 0.05. In addition, the concentration for half-maximal inhibition (IC50) at KDR (VEGFR2), on FLT4 (VEGFR3) and on FLT1 (VEGFR1) was not above 1 nM each time.

With `O=C(NC1CC1)c1ccccc1Sc1ccc2c(/C=C/c3ccc(OCCN4CCCC4)cn3)n[nH]c2c1` [Compound I-8, N-cyclopropyl-2-({3-[(E)-2-{5-[2-(pyrrolidin-1-yl)ethoxy]pyridin-2-yl}vinyl]-1H-indazol-6-yl}thio)benzamide], the fraction unbound at 2 h, 2 μM in the series on melanin was in the range of 0.01 to 0.05. Further, the IC50 on KDR (VEGFR2) was 1 to 10 nM; on FLT4 (VEGFR3), 1 to 10 nM; on EGFR it was 6000 to 60000 nM; at FLT1 (VEGFR1) it was 1 to 10 nM.

For the compound `O=C(NC1CC1)c1ccccc1Sc1ccc2c(/C=C/c3cccc(CN4CCCC4)n3)n[nH]c2c1` [Compound I-117, N-cyclopropyl-2-({3-[(E)-2-{6-[(pyrrolidin-1-yl)methyl]pyridin-2-yl}vinyl]-1H-indazol-6-yl}thio)benzamide], in the series on melanin, the fraction unbound at 2 h, 2 μM was in the range of 0.01 to 0.05. Moreover, the IC50 on KDR (VEGFR2) is 1 to 10 nM; at FLT4 (VEGFR3), 1 to 10 nM; at EGFR, more than 60000 nM; on FLT1 (VEGFR1) it was 1 to 10 nM.

Consider `CNC(=O)c1ccccc1Sc1ccc2c(/C=C/c3ccnc(OCCN4CCCC4)c3)n[nH]c2c1` [Compound I-18, N-methyl-2-({3-[(E)-2-{2-[2-(pyrrolidin-1-yl)ethoxy]pyridin-4-yl}vinyl]-1H-indazol-6-yl}thio)benzamide], for which the fraction unbound at 2 h, 2 μM with melanin was 0.01 to 0.05. The half-maximal inhibitory concentration (IC50) lay within 1 to 10 nM on KDR (VEGFR2), 1 to 10 nM at FLT4 (VEGFR3), 6000 to 60000 nM at EGFR and 1 to 10 nM at FLT1 (VEGFR1).

Regarding `O=C(NC1CC1)c1cc(F)ccc1Sc1ccc2c(/C=C/c3cc(CCCN4CCCC4)ccn3)n[nH]c2c1` [Compound I-119, N-cyclopropyl-5-fluoro-2-({3-[(E)-2-{4-[3-(pyrrolidin-1-yl)propyl]pyridin-2-yl}vinyl]-1H-indazol-6-yl}thio)benzamide], the IC50 on KDR (VEGFR2) is not above 1 nM; at FLT4 (VEGFR3), 10 to 100 nM; on EGFR it was more than 60000 nM; at FLT1 (VEGFR1) it was 1 to 10 nM.

As to `CNC(=O)c1ccccc1Sc1ccc2c(Nc3ccc(OCCN4CCCC4)cn3)n[nH]c2c1` [Compound I-30, N-methyl-2-{[3-({5-[2-(pyrrolidin-1-yl)ethoxy]pyridin-2-yl}amino)-1H-indazol-6-yl]thio}benzamide], the IC50 is more than 100 nM at KDR (VEGFR2), more than 100 nM on FLT4 (VEGFR3), 6000 to 60000 nM at EGFR and more than 100 nM at FLT1 (VEGFR1).

For the compound `CNC(=O)c1ccccc1Sc1ccc2c(/C=C/c3cnn(CCCN4CCCC4)c3)n[nH]c2c1` [Compound I-32, N-methyl-2-({3-[(E)-2-{1-[3-(pyrrolidin-1-yl)propyl]-1H-pyrazole-4-yl}vinyl]-1H-indazol-6-yl}thio)benzamide], in the series with melanin, the fraction unbound at 2 h, 2 μM is 0.01 to 0.05. Further, the IC50 was 1 to 10 nM on KDR (VEGFR2), 1 to 10 nM at FLT4 (VEGFR3), 6000 to 60000 nM on EGFR and 1 to 10 nM on FLT1 (VEGFR1).

For `O=C(NC1CC1)c1ccccc1Sc1ccc2c(/C=C/c3cc(CCCN4CCCC4)ccn3)n[nH]c2c1` [Compound I-120, N-cyclopropyl-2-({3-[(E)-2-{4-[3-(pyrrolidin-1-yl)propyl]pyridin-2-yl}vinyl]-1H-indazol-6-yl}thio)benzamide], the IC50 at KDR (VEGFR2) was not above 1 nM; at FLT4 (VEGFR3) it was 1 to 10 nM; on EGFR, more than 60000 nM; on FLT1 (VEGFR1) it was 1 to 10 nM.

For the compound `CNC(=O)c1ccccc1Sc1ccc2c(/C=C/c3ccc(O)cn3)n[nH]c2c1` [Compound I-10, 2-({3-[(E)-2-(5-hydroxypyridin-2-yl)vinyl]-1H-indazol-6-yl}thio)-N-methylbenzamide], the IC50 at KDR (VEGFR2) was 1 to 10 nM; at FLT4 (VEGFR3), not above 1 nM; on EGFR, 6000 to 60000 nM; on FLT1 (VEGFR1), 1 to 10 nM.

Turning to `CNC(=O)c1ccccc1Sc1ccn2c(/C=C/c3ccccn3)ncc2c1` [Compound I-27, N-methyl-2-({3-[(E)-2-(pyridin-2-yl)vinyl]imidazo[1,5-a]pyridin-7-yl}thio)benzamide], the IC50 was more than 100 nM at KDR (VEGFR2), more than 100 nM on FLT4 (VEGFR3), 6000 to 60000 nM at EGFR and more than 100 nM at FLT1 (VEGFR1).

With `CNC(=O)c1ccccc1Sc1ccc2c(C#Cc3cccc(OCCN4CCCC4)n3)n[nH]c2c1` [Compound I-24, N-methyl-2-{[3-(2-{6-[2-(pyrrolidin-1-yl)ethoxy]pyridin-2-yl}ethynyl)-1H-indazol-6-yl]thio}benzamide], the concentration for half-maximal inhibition (IC50) at KDR (VEGFR2) lay in the range of 10 to 100 nM; at FLT4 (VEGFR3), 10 to 100 nM; at EGFR it was 6000 to 60000 nM; at FLT1 (VEGFR1), 10 to 100 nM.

`CNC(=O)c1ccccc1Sc1ccc2c(/C=C/c3ccc(OC[C@H]4CCN(C)C4)cn3)n[nH]c2c1` [Compound I-37, N-methyl-2-({3-[(E)-2-(5-{[(3S)-1-methylpyrrolidin-3-yl]methoxy}pyridin-2-yl)vinyl]-1H-indazol-6-yl}thio)benzamide]: the fraction unbound at 2 h, 2 μM with melanin is 0.01 to 0.05. For the same compound, the IC50 on KDR (VEGFR2) and on FLT1 (VEGFR1) was not above 1 nM throughout.

`O=C(NC1CC1)c1ccccc1Sc1ccc2c(/C=C/c3cccc(CCCN4CCCC4)n3)n[nH]c2c1` [Compound I-121, N-cyclopropyl-2-({3-[(E)-2-{6-[3-(pyrrolidin-1-yl)propyl]pyridin-2-yl}vinyl]-1H-indazol-6-yl}thio)benzamide]: the IC50 is not above 1 nM on KDR (VEGFR2), not above 1 nM at FLT4 (VEGFR3), 6000 to 60000 nM at EGFR and 1 to 10 nM on FLT1 (VEGFR1).

These data come from patent US20260049071A1, “PROTEIN TYROSINE KINASE INHIBITOR AND MEDICAL USE THEREOF” (BEYANG THERAPEUTICS CO., LTD., priority 2022, published 2026).
